Tested on: FGFR2
Test: FRS2, Erk1/2 and PLCγ phosphorylation in FGFR2-transfected HEK293 cells (western blot)
Format: cell-based, human
Settings: compound at 1 μM
Procedure: HEK293 cells were either transiently of stably transfected (using FuGENE 6, Roche) with hFGFR2IIIca or hFGFR2IIIca-Y328D cloned in pcDNA3 (Invitrogen). Stably transfected cells were grown in G418 (400 μg/ml) containing medium. Before stimulation, the cells were starved overnight in DMEM (0% serum), and pre-incubated with […] at the required concentration. The cells were subsequently stimulated with FGF2 (concentration between 0.5-10 ng/ml) for 5 min at 37° C. with or without SSR or SU5402 at 1 μM. After washing with ice-cold phosphate-buffered saline containing phosphatase inhibitors (Roche), cells were lysed in RIPA buffer (Tris 30 mM HCl pH 7.5, 150 mM NaCl, 1 mM EDTA, 1% triton-X, 0.5% w/v deoxycholate, containing phophatase and protease inhibitors as described by the manufacturer (Roche)). Cell lysates were centrifuged at 12,000 g for 10 min, and the supernatants were collected. Proteins were separated on Novex polyacrylamide gels (Invitrogen, Carlsbad, Calif.) and subsequently transferred onto Hybond ECL nitrocellulose membranes (Amersham Pharmacia). Following incubation with 5% non-fat milk powder in PBS, the membranes were incubated overnight at 4° C. with the following antibodies: phospho-ERK1/2 (CST:9101), phospho-FRS2 (CST:3861), phospho-PLCγ (CST:2821) and FGFR2 (F0300, Sigma).
In order to evaluate SSR effect on FGFR-controlled phosphor-signalling, HEK293 cells have been transfected with FGFR2 and the two main pathways following FGFR autophosphorylation, PLCγ and FRS2, have been studied by western blot in comparison with a published FGFR tyrosine kinase inhibitor SU5402 described to inhibit FGFR-dependent FRS2 and PLCγ cascades (Zhen et al., Oncogene 2007). In such cells, FGF induces FRS2, Erk1/2 and PLCγ phosphorylation. […] More generally, these differences in phosphorylation can be used as reporter to evaluate allosteric modulators.

Cc1c[nH]c(/C=C2\C(=O)Nc3ccccc32)c1CCC(=O)O [SU5402]
blocks: FGF-induced Erk1/2 phosphorylation | FGF-induced FRS2 phosphorylation | FGF-induced PLCγ phosphorylation

Source: patent publication US9234025B2, “Extracellular allosteric inhibitor binding domain from a tyrosine kinase receptor” (SANOFI, priority 2009, dated 2016)
